# Values quoted from earlier work as cited in patent publication US20240307296A1, “SUBCUTANEOUS BIODEGRADABLE NALTREXONE IMPLANT AND ACCOMPANYING BEHAVIORAL PROGRAM FOR WEIGHT LOSS IN A PATIENT” (Biocorrx, priority 2017, published 2024).
# Tested on: fasting insulin levels
# Details: in vivo
structure (smiles),measurement,value
"O=C1CC[C@@]2(O)[C@H]3Cc4ccc(O)c5c4[C@@]2(CCN3CC2CC2)[C@H]1O5 [Naltrexone, N-Cyclopropylmethylnoroxymorphone]",Lowering of fasting insulin levels,up to 40%
